In US20220204497A1, “NOVEL COMPOUND HAVING ANTICANCER ACTIVITY, AND METHOD FOR PRODUCING SAME” (MEDICINAL BIOCONVERGENCE RESEARCH CENTER, priority 2019, published 2022):

Columns and labels:
A549 cells = test: Cell viability by MTT method in A549 cells; format: cell-based; set-up: concentration or dose not given beside the values; settings: 72 hours treatment
AIMP2-DX2 = target: T1, AIMP2-DX2 (Homo sapiens, UniProt Q13155); test: DX2-nanoluciferase assay (DX2 expression change) in transfected A549 cells; settings: inhibitory effect on AIMP2-DX2 expression; for inhibition at 40 µM: A549, 4 h, read-out: DX-Nanoluciferase activity (40 μM), 40 μM, 4 hours treatment, A549 cells transfected with nanoluciferase-DX2; for DX-Nanoluciferase activity (40 μM): 4 hours treatment, A549 cells transfected with nanoluciferase-DX2
T1 sequence (Q13155 1-251 isoform Q13155-2): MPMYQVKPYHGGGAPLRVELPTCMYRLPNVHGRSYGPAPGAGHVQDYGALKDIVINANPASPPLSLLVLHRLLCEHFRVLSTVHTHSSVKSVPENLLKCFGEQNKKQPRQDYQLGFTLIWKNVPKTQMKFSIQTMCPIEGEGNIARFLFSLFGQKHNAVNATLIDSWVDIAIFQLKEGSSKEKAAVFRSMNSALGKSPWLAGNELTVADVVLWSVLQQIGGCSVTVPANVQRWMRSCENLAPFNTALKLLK
Experimental: After cloning DX2 into a plasmid expressing nanoluciferase, the plasmid was transfected into A549 cells. Transfected cells were seeded 1×10^4 per well in a 96-well plate and stabilized for 12 hours. […] Cell viability was measured by the MTT method after 72 hours of treatment with each concentration of the compound in A549 cells.

SMILES | Cell Viability (% inhibition) (A549) (A549 cells) [%] | inhibition at 40 µM (AIMP2-DX2) [%] | DX-Nanoluciferase activity (40 μM) (AIMP2-DX2)
Cc1ccc(S(=O)(=O)N[C@@H](CO)C(=O)N2CCOCC2)cc1 [Compound 39, (S)—N-(3-hydroxy-1-morpholino-1-oxopropan-2-yl)-4-methylbenzenesulfonamide] | −2.43 ± 0.94 | 7.7 ± 11.2 | –
Cc1ccc(S(=O)(=O)N[C@H](C(=O)N2CCOCC2)C(C)C)cc1 [Compound 40, (S)-4-methyl-N-(3-methyl-1-morpholino-1-oxobutan-2-yl)benzenesulfonamide] | −5.41 ± 6.12 | 31.3 ± 10.3 | –
Cc1ccc(S(=O)(=O)N[C@@H](CS)C(=O)N2CCOCC2)cc1 [Compound 41, (R)—N-(3-mercapto-1-morpholino-1-oxopropan-2-yl)-4-methylbenzenesulfonamide] | 12.16 ± 6.14 | 52.5 ± 5.6 | –
Cc1ccc(S(=O)(=O)N[C@H](C(=O)Nc2ccc(N3CCOCC3)cc2)[C@H](C)O)cc1 [Compound 42, (2S,3S)-3-hydroxy-2-(4-methylphenylsulfonamido)-N-(4-morpholinophenyl)butanamide] | 13.24 ± 6.93 | -12.8 ± 10.6 | –
CC[C@H](C)[C@H](NS(=O)(=O)c1ccc(C)cc1)C(=O)Nc1ccc(N2CCOCC2)cc1 [Compound 43, (2S,3S)-3-methyl-2-(4-methylphenylsulfonamido)-N-(4-morpholinophenyl)pentanamide] | 17.08 ± 7.96 | 42.9 ± 3.9 | –
Cc1ccc(S(=O)(=O)N[C@@H](Cc2cc3ccccc3[nH]2)C(=O)Nc2ccc(N3CCOCC3)cc2)cc1 [Compound 46, (S)-3-(1H-indol-2-yl)-2-(4-methylphenylsulfonamido)-N-(4-morpholinophenyl) propanamide] | 61.35 ± 10.27 | – | 67.1 ± 10.8
Cc1ccc(S(=O)(=O)N[C@@H](Cc2cn(C)c3ccccc23)C(=O)Nc2ccc(N3CCOCC3)cc2)cc1 [Compound 47, (S)-3-(1-methyl-1H-indol-3-yl)-2-(4-methylphenylsulfonamido)-N-(4-morpholinophenyl) propanamide] | 64.95 ± 2.84 | – | 38.20 ± 7.73
Cc1ccc(S(=O)(=O)N[C@@H](CC(C)C)C(=O)OCc2ccccc2)cc1 [Compound 49, (S)-benzyl 4-methyl-2-(4-methylphenylsulfonamido)pentanoate] | 96.77 ± 0.70 | 43.1 ± 6.46 | –
Cc1ccc(C(=O)N[C@@H](CC(C)C)C(=O)OCc2ccccc2)cc1 [Compound 50, (S)-benzyl 4-methyl-2-(4-methylbenzamido)pentanoate] | 75.41 ± 3.28 | 65.9 ± 4 | –
CC(C)C[C@H](NC(=O)c1ccc(C(C)(C)C)cc1)C(=O)OCc1ccccc1 [Compound 51, (S)-benzyl 2-(4-tert-butylbenzamido)-4-methylpentanoate] | 11.62 ± 4.29 | 63.5 ± 4.5 | –
CC(C)C[C@H](NC(=O)c1ccc2c(c1)OCO2)C(=O)OCc1ccccc1 [Compound 52, (S)-benzyl 2-(benzo[d][1,3]dioxole-5-carboxamido)-4-methylpentanoate] | 64.59 ± 5.15 | -5.6 ± 5.2 | –
CC(C)C[C@H](NC(=O)c1ccc(NC(=O)OC(C)(C)C)cc1)C(=O)OCc1ccccc1 [Compound 53, (S)-benzyl 2-(4-(tert-butoxycarbonylamino)benzamido)-4-methylpentanoate] | 49.19 ± 13.33 | 43.7 ± 9.9 | –
CC(C)C[C@H](NC(=O)CCS(=O)(=O)c1ccccc1)C(=O)OCc1ccccc1 [Compound 54, (S)-benzyl 4-methyl-2-(3-(phenylsulfonyl)propanamido)pentanoate] | 84.05 ± 2.61 | – | 33.7 ± 4.3
CC(C)C[C@H](NC(=O)Nc1ccccc1)C(=O)N1CCOCC1 [Compound 56, (S)-1-(4-Methyl-1-morpholino-1-oxopentan-2-yl)-3-phenylurea] | 32.07 | 33 ± 10.7 | –
CC(C)C[C@H](NC(=O)c1ccc(C(C)(C)C)cc1)C(=O)N1CCOCC1 [Compound 57, (S)-4-tert-Butyl-N-(4-methyl-1-morpholino-1-oxopentan-2-yl)benzamide] | −4.86 ± 4.95 | 63.8 ± 11 | –
CC(C)C[C@H](NC(=O)CCS(=O)(=O)c1ccccc1)C(=O)N1CCOCC1 [Compound 58, (S)—N-(4-Methyl-1-morpholino-1-oxopentan-2-yl)-3-(phenylsulfonyl)propanamide] | −0.81 ± 4.95 | 63.1 ± 4.5 | –
CC(C)C[C@H](NC(=O)c1ccc(C(C)(C)C)cc1)C(=O)Nc1ccc(N2CCOCC2)cc1 [Compound 59, (S)-4-tert-Butyl-N-(4-methyl-1-(4-morpholinophenylamino)-1-oxopentan-2-yl)benzamide] | 90.03 ± 0.97 | 45.7 ± 8.28 | –
CC(C)C[C@H](NC(=O)c1ccc2c(c1)OCO2)C(=O)Nc1ccc(N2CCOCC2)cc1 [Compound 60, (S)—N-(4-Methyl-1-(4-morpholinophenylamino)-1-oxopentan-2-yl)benzo[d][1,3]dioxole-5-carboxamide] | 9.46 ± 9.67 | 35.7 ± 10.2 | –
CC(C)C[C@H](NC(=O)CCS(=O)(=O)c1ccccc1)C(=O)Nc1ccc(N2CCOCC2)cc1 [Compound 61, (S)-4-Methyl-N-(4-morpholinophenyl)-2-(3-(phenylsulfonyl)propanamido)pentanamide] | −1.25 ± 3.63 | 60.3 ± 4.8 | –
Cc1cc(C)cc(S(=O)(=O)N[C@@H](Cc2c[nH]c3ccccc23)C(=O)Nc2ccc(N3CCOCC3)cc2)c1 [Compound 66, (S)-2-(3,5-Dimethylphenylsulfonamido)-3-(1H-indol-3-yl)-N-(4 morpholinophenyl)propanamide] | 77.25 ± 0.82 | 42.4 ± 3.97 | –
O=C(Nc1ccc(N2CCOCC2)cc1)[C@H](Cc1c[nH]c2ccccc12)NS(=O)(=O)c1ccc(F)cc1 [Compound 67, (S)-2-(4-Fluorophenylsulfonamido)-3-(1H-indol-3-yl)-N-(4-morpholinophenyl)propanamide] | 69.20 ± 2.10 | 44.5 ± 14.2 | –
O=C(Nc1ccc(N2CCOCC2)cc1)[C@H](Cc1c[nH]c2ccccc12)NS(=O)(=O)c1ccc(C(F)(F)F)cc1 [Compound 68, (S)-3-(1H-indol-3-yl)-N-(4-morpholinophenyl)-2-(4-(trifluoromethyl)phenylsulfon-amido)propanamide] | 76.90 ± 0.51 | – | 48.06 ± 6.78
Cc1ccc(S(=O)(=O)N[C@@H](Cc2c[nH]c3ccc(O)cc23)C(=O)Nc2ccc(N3CCOCC3)cc2)cc1 [Compound 69, (S)-3-(5-Hydroxy-1H-indol-3-yl)-2-(4-methylphenylsulfonamido)-N-(4-morpholinophenyl)propanamide] | 20.62 ± 5.14 | 48.4 ± 11.6 | –
Cc1ccc(S(=O)(=O)N[C@@H](Cc2c[nH]c3ccccc23)C(=O)N2CCOCC2)cc1 [Compound 70, (S)—N-(3-(1H-indol-3-yl)-1-morpholino-1-oxopropan-2-yl)-4-methylbenzenesulfonamide] | 23.61 ± 2.18 | 59.7 ± 3.49 | –
Cc1ccc(S(=O)(=O)N[C@@H](Cc2c[nH]c3ccccc23)C(=O)Nc2ncc(N3CCOCC3)s2)cc1 [Compound 71, (S)-3-(1H-indol-3-yl)-2-(4-methylphenylsulfonamido)-N-(5-morpholinothiazol-2-yl)propan amide] | 72.71 ± 0.97 | – | 54.64 ± 13.30
Cc1ccc(S(=O)(=O)N[C@@H](Cc2c[nH]c3ccccc23)C(=O)Nc2ccc(N3CCOCC3)cc2)c(C)c1 [Compound 72, (S)-2-(2,4-Dimethylphenylsulfonamido)-3-(1H-indol-3-yl)-N-(4-morpholinophenyl)propanamide] | 73.73 ± 0.78 | 21.5 ± 7.62 | –
CCOC(=O)C(Cc1c[nH]c2ccc(C(=O)O)cc12)NS(=O)(=O)c1ccc(C)cc1 (centres unmarked) [Compound 73, 3-(3-Ethoxy-2-(4-methylphenylsulfonamido)-3-oxopropyl)-1H-indole-5-carboxylic acid] | 4.32 ± 2.95 | 44.2 ± 3.91 | –
Cc1ccc(S(=O)(=O)N[C@@H](Cc2cn(S(=O)(=O)c3ccc(C)cc3)cn2)C(=O)Nc2ccc(N3CCOCC3)cc2)cc1 [Compound 74, (S)-2-(4-Methylphenylsulfonamido)-N-(4-morpholinophenyl)-3-(1-tosyl-1H-Imidazol-4-yl)propanamide] | 45.34 ± 4.64 | 56.2 ± 14.5 | –
